One test concerns the target HDAC6 human recombinant (Homo sapiens (Human), UniProt Q9UBN7). The test can be described thus: HDAC enzyme activity inhibition (in vitro), HDAC6 assay. The format is biochemical. The conditions noted are these: samples at 0.1, 1, 10, 100 and 1000 nM; 37° C. 60 minutes; fluorescence Ex 390, Em 460.
A further test addresses HDAC1 (Homo sapiens (Human), UniProt Q13547). The test can be described thus: HDAC enzyme activity inhibition (in vitro), HDAC1 Fluorimetric Drug Discovery Assay Kit. Type of test: biochemical. Particulars: samples at 100, 1000 and 10000 nM; 37° C. 60 minutes; fluorescence Ex 390, Em 460.

Here are results for 24 compounds from patent US12440484B2, “1,3,4-oxadiazole homophthalimide derivative compounds as histone deacetylase 6 inhibitor, and the pharmaceutical composition comprising the same” (Chong Kun Dang Pharmaceutical Corp., priority 2019, dated 2025).

Each structure is given as a SMILES string.

HDAC6 human recombinant, sequence (Q9UBN7 whole entry): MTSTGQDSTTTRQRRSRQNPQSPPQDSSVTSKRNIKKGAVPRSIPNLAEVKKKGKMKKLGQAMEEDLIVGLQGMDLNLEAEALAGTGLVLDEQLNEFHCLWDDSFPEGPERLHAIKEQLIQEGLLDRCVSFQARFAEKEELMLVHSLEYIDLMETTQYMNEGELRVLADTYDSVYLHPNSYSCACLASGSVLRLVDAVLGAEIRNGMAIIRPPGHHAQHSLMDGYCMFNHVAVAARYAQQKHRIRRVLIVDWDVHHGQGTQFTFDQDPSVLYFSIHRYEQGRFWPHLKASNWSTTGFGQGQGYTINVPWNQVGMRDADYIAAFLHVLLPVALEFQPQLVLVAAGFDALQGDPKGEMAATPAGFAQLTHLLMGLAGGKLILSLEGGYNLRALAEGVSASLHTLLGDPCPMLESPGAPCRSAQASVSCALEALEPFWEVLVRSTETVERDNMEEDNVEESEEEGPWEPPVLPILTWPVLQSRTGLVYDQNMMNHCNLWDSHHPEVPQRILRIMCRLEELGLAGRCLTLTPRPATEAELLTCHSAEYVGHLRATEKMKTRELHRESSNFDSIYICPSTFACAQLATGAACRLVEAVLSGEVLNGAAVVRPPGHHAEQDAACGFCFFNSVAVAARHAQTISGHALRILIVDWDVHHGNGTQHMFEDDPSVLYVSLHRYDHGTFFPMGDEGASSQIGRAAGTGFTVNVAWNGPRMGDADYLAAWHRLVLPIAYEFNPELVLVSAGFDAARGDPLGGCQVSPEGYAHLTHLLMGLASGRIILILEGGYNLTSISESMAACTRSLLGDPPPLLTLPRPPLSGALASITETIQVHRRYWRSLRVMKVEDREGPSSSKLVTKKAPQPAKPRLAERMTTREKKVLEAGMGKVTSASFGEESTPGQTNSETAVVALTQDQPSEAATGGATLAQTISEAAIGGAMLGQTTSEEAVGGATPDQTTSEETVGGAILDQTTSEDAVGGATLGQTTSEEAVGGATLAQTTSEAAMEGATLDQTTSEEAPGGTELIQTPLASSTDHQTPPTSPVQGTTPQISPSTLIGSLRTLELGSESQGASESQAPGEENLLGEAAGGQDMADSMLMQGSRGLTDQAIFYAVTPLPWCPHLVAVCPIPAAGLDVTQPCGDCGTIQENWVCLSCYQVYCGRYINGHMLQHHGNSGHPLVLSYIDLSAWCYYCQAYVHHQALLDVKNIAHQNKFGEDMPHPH
HDAC1, sequence (Q13547 whole entry): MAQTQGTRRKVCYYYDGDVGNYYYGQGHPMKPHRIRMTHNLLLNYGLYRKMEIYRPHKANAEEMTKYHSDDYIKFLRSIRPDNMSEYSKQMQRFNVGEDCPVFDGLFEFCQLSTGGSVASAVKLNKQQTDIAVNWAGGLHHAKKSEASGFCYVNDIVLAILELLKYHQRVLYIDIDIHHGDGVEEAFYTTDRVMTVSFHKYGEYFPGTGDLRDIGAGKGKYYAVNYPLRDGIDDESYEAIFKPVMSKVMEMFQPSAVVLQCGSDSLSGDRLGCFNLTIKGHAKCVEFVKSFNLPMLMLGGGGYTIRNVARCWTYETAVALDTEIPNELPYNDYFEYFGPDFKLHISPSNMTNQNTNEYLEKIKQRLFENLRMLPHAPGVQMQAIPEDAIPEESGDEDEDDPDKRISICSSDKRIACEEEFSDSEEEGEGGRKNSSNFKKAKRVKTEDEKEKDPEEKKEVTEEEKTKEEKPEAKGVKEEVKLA

The term IC50 denotes the concentration at which inhibition is half-maximal. As to `CC1(C)C(=O)N(Cc2ccc(-c3nnc(C(F)F)o3)cn2)C(=O)c2ccc(C3CCN(C4COC4)CC3)cc21` [Compound 61, 2-((5-(5-(difluoromethyl)-1,3,4-oxadiazole-2-yl)pyridine-2-yl)methyl)-4,4-dimethyl-6-(1-(oxetan-3-yl)piperidine-4-yl)isoquinoline-1,3(2H,4H)-dione], the IC50 on HDAC6 human recombinant is 35 nM; at HDAC1, over 10000 nM.
As to `COCCN1CCN(c2ccc3c(c2)C(C)(C)C(=O)N(Cc2ccc(-c4nnc(C(F)F)o4)cn2)C3=O)CC1` [Compound 35, 2-((5-(5-(difluoromethyl)-1,3,4-oxadiazole-2-yl)pyridine-2-yl)methyl)-6-(4-(2-methoxyethyl)piperazine-1-yl)-4,4-dimethylisoquinoline-1,3(2H,4H)-dione], the IC50 at HDAC6 human recombinant was 26 nM; on HDAC1 it was over 10000 nM.
On the same counts, the results for `O=C1c2ccc(Br)cc2C2(CCC2)C(=O)N1Cc1ccc(-c2nnc(C(F)F)o2)cn1` [Compound 106, 6′-bromo-2′-((5-(5-(difluoromethyl)-1,3,4-oxadiazole-2-yl)pyridine-2-yl)methyl)-1′H-spiro[cyclobutane-1,4′-isoquinoline]-1′,3′(2′H)-dione] are 48 nM and over 10000 nM.
On the same counts, the results for `CC1(C)C(=O)N(Cc2ccc(-c3nnc(C(F)F)o3)cn2)C(=O)c2cc(Br)ccc21` [Compound 51, 7-bromo-2-((5-(5-(difluoromethyl)-1,3,4-oxadiazole-2-yl)pyridine-2-yl)methyl)-4,4-dimethylisoquinoline-1,3(2H,4H)-dione] are 38 nM and over 10000 nM.
On the same counts, the results for `CCN1CCC(c2ccc3c(c2)C(C)(C)C(=O)N(Cc2ccc(-c4nnc(C(F)F)o4)cn2)C3=O)CC1` [Compound 59, 2-((5-(5-(difluoromethyl)-1,3,4-oxadiazole-2-yl)pyridine-2-yl)methyl)-6-(1-ethylpiperidine-4-yl)-4,4-dimethylisoquinoline-1,3(2H,4H)-dione] are 56 nM and over 10000 nM.
Regarding `CCCCN1CCN(c2ccc3c(c2)C(C)(C)C(=O)N(Cc2ccc(-c4nnc(C(F)F)o4)cn2)C3=O)CC1` [Compound 147, 6-(4-butylpiperazine-1-yl)-2-((5-(5-(difluoromethyl)-1,3,4-oxadiazole-2-yl)pyridine-2-yl)methyl)-4,4-dimethylisoquinoline-1,3(2H,4H)-dione], the IC50 at HDAC6 human recombinant was 69 nM; on HDAC1, over 10000 nM.
On the same counts, the results for `CN1CCC(Cn2c(=O)n(Cc3ccc(-c4nnc(C(F)F)o4)cn3)c(=O)c3cc(F)ccc32)CC1` [Compound 73, 3-((5-(5-(difluoromethyl)-1,3,4-oxadiazole-2-yl)pyridine-2-yl)methyl)-6-fluoro-1-((1-methylpiperidine-4-yl)methyl)quinazoline-2,4(1H,3H)-dione] are 98 nM and over 10000 nM.
On the same counts, the results for `CC1(C)C(=O)N(Cc2ccc(-c3nnc(C(F)F)o3)cn2)C(=O)c2ccc(N3CC(F)(F)C3)cc21` [Compound 49, 6-(3,3-difluoroazetidine-1-yl)-2-((5-(5-(difluoromethyl)-1,3,4-oxadiazole-2-yl)pyridine-2-yl)methyl)-4,4-dimethylisoquinoline-1,3(2H,4H)-dione] are 41 nM and over 10000 nM.
On the same counts, the results for `CC1(C)C(=O)N(Cc2ccc(-c3nnc(C(F)F)o3)cn2)C(=O)c2ccc(N3CCN(CC4CCCCC4)CC3)cc21` [Compound 48, 6-(4-(cyclohexylmethyl)piperazine-1-yl)-2-((5-(5-(difluoromethyl)-1,3,4-oxadiazole-2-yl)pyridine-2-yl)methyl)-4,4-dimethylisoquinoline-1,3(2H,4H)-dione] are 342 nM and over 10000 nM.
Consider `Cn1c(=O)n(Cc2ccc(-c3nnc(C(F)F)o3)cn2)c(=O)c2cc(-c3ccco3)ccc21` [Compound 87, 3-((5-(5-(difluoromethyl)-1,3,4-oxadiazole-2-yl)pyridine-2-yl)methyl)-6-(furan-2-yl)-1-methylquinazoline-2,4(1H,3H)-dione], for which the figures for the IC50 on HDAC6 human recombinant and on HDAC1 were 23 nM and over 10000 nM, respectively.
As to `CC(C)(C)OC(=O)N1CCN(c2ccc3c(c2)C(=O)N(Cc2ccc(-c4nnc(C(F)F)o4)cn2)C(=O)C3(C)C)CC1` [Compound 116, tert-butyl 4-(2-((5-(5-(difluoromethyl)-1,3,4-oxadiazole-2-yl)pyridine-2-yl)methyl)-4,4-dimethyl-1,3-dioxo-1,2,3,4-tetrahydroisoquinoline-7-yl)piperazine-1-carboxylate], the IC50 was 200 nM on HDAC6 human recombinant and over 10000 nM at HDAC1.
`O=c1c2ccccc2n(CCN2CCCCC2)c(=O)n1Cc1ccc(-c2nnc(C(F)F)o2)cc1` [Compound 11, 3-(4-(5-(difluoromethyl)-1,3,4-oxadiazole-2-yl)benzyl)-1-(2-(piperidine-1-yl)ethyl)quinazoline-2,4(1H,3H)-dione]: the IC50 on HDAC6 human recombinant was 1020 nM; against HDAC1 it was over 10000 nM.
On the same counts, the results for `Cn1c(=O)n(Cc2ccc(-c3nnc(C(F)F)o3)cn2)c(=O)c2ccccc21` [Compound 18, 3-((5-(5-(difluoromethyl)-1,3,4-oxadiazole-2-yl)pyridine-2-yl)methyl)-1-methylquinazoline-2,4(1H,3H)-dione] are 132 nM and over 10000 nM.
In the same order, the values of `CC(C)(C)OC(=O)N1CC=C(c2ccc3c(c2)C(=O)N(Cc2ccc(-c4nnc(C(F)F)o4)cn2)C(=O)C3(C)C)CC1` [Compound 53, tert-butyl 4-(2-((5-(5-(difluoromethyl)-1,3,4-oxadiazole-2-yl)pyridine-2-yl)methyl)-4,4-dimethyl-1,3-dioxo-1,2,3,4-tetrahydroisoquinoline-7-yl)-3,6-dihydropyridine-1(2H)-carboxylate] are 427 nM and over 10000 nM.
On the same counts, the results for `CC(C)CN1CCC(c2ccc3c(c2)C(=O)N(Cc2ccc(-c4nnc(C(F)F)o4)cn2)C(=O)C3(C)C)CC1` [Compound 144, 2-((5-(5-(difluoromethyl)-1,3,4-oxadiazole-2-yl)pyridine-2-yl)methyl)-7-(1-isobutylpiperidine-4-yl)-4,4-dimethylisoquinoline-1,3(2H,4H)-dione] are 34 nM and over 10000 nM.
Take `O=C1c2ccccc2C2(CCC2)C(=O)N1Cc1ccc(-c2nnc(C(F)F)o2)cc1` [Compound 5, 2′-(4-(5-(difluoromethyl)-1,3,4-oxadiazole-2-yl)benzyl)-1′H-spiro[cyclobutane-1,4′-isoquinoline]-1′,3′(2′H)-dione]: the IC50 on HDAC6 human recombinant was 513 nM; against HDAC1, over 10000 nM.
With `CC1(C)C(=O)N(Cc2ccc(-c3nnc(C(F)F)o3)cn2)C(=O)c2ccc(C3CCN(C4CCC4)CC3)cc21` [Compound 64, 6-(1-cyclobutylpiperidine-4-yl)-2-((5-(5-(difluoromethyl)-1,3,4-oxadiazole-2-yl)pyridine-2-yl)methyl)-4,4-dimethylisoquinoline-1,3(2H,4H)-dione], the IC50 at HDAC6 human recombinant was 25 nM; at HDAC1, over 10000 nM.
In the same order, the values of `CC1(C)C(=O)N(Cc2ccc(-c3nnc(C(F)F)o3)cn2)C(=O)c2ccc(N3CCN(C4CC4)CC3)cc21` [Compound 47, 6-(4-cyclopropylpiperazine-1-yl)-2-((5-(5-(difluoromethyl)-1,3,4-oxadiazole-2-yl)pyridine-2-yl)methyl)-4,4-dimethylisoquinoline-1,3(2H,4H)-dione] are 49 nM and over 10000 nM.
Regarding `CC(C)CCN1CCN(c2ccc3c(c2)C(=O)N(Cc2ccc(-c4nnc(C(F)F)o4)cn2)C(=O)C3(C)C)CC1` [Compound 132, 2-((5-(5-(difluoromethyl)-1,3,4-oxadiazole-2-yl)pyridine-2-yl)methyl)-7-(4-isopentylpiperazine-1-yl)-4,4-dimethylisoquinoline-1,3(2H,4H)-dione], the IC50 on HDAC6 human recombinant is 69 nM; against HDAC1, over 10000 nM.
In the same order, the values of `CC1(C)C(=O)N(Cc2ccc(-c3nnc(C(F)F)o3)cn2)C(=O)c2cc(C3CCN(S(C)(=O)=O)CC3)ccc21` [Compound 128, 2-((5-(5-(difluoromethyl)-1,3,4-oxadiazole-2-yl)pyridine-2-yl)methyl)-4,4-dimethyl-7-(1-(methylsulfonyl)piperidine-4-yl)isoquinoline-1,3(2H,4H)-dione] are 70 nM and over 10000 nM.
On the same counts, the results for `CC1(C)C(=O)N(Cc2ccc(-c3nnc(C(F)F)o3)cn2)C(=O)c2ccc(-c3ccncc3)cc21` [Compound 105, 2-((5-(5-(difluoromethyl)-1,3,4-oxadiazole-2-yl)pyridine-2-yl)methyl)-4,4-dimethyl-6-(pyridine-4-yl)isoquinoline-1,3(2H,4H)-dione] are 10 nM and over 10000 nM.
Regarding `CC1(C)C(=O)N(Cc2ccc(-c3nnc(C(F)F)o3)cn2)C(=O)c2cc(C3CCN(C(=O)CO)CC3)ccc21` [Compound 134, 2-((5-(5-(difluoromethyl)-1,3,4-oxadiazole-2-yl)pyridine-2-yl)methyl)-7-(1-(2-hydroxyacetyl)piperidine-4-yl)-4,4-dimethylisoquinoline-1,3(2H,4H)-dione], the IC50 on HDAC6 human recombinant is 12 nM; at HDAC1, over 10000 nM.
On the same counts, the results for `CC1(C)C(=O)N(Cc2ccc(-c3nnc(C(F)F)o3)cn2)C(=O)c2ccc(C3=CCN(C4COC4)CC3)cc21` [Compound 43, 2-((5-(5-(difluoromethyl)-1,3,4-oxadiazole-2-yl)pyridine-2-yl)methyl)-4,4-dimethyl-6-(1-(oxetan-3-yl)-1,2,3,6-tetrahydropyridine-4-yl)isoquinoline-1,3(2H,4H)-dione] are 38 nM and over 10000 nM.
In the same order, the values of `CC(C)CN1CCN(c2ccc3c(c2)C(=O)N(Cc2ccc(-c4nnc(C(F)F)o4)cn2)C(=O)C3(C)C)CC1` [Compound 131, 2-((5-(5-(difluoromethyl)-1,3,4-oxadiazole-2-yl)pyridine-2-yl)methyl)-7-(4-isobutylpiperazine-1-yl)-4,4-dimethylisoquinoline-1,3(2H,4H)-dione] are 62 nM and over 10000 nM.
